Test results published in patent publication US10632170B2, “Administration of compstatin to an individual for the treatment of a tumor” (The Trustees of the University of Pennsylvania, priority 2008, dated 2020).

What was measured:
arginase-1 = assay: Arginase-1 expression in tumor whole-cell extracts (immunoblot); format: in vivo, mouse; settings: C5aR antagonist-treated vs control mice; without reaching statistical difference; FIG. 7F
Protocol: Whole-cell extracts were prepared from tumor tissue mechanically disrupted in lysis buffer (20 mM HEPES, pH 7.4, 0.2 mM EDTA, 420 mM NaCl, 1.5 mM MgCl2, 20% glycerol) treated with protease and phosphatase inhibitors (1 mM DTT, 0.1 mM PMSF, 0.1 mM Na3VO4, 1 mM NaF, 1 mM β-glycerophosphate, and 2 μg/ml each of antipain dihydrochloride, aprotinin, bestatin and leupeptin). For each protein sample, 40 μg was electrophoresed on a 12% polyacrylamide gel and transferred to a PVDF membrane. Membranes were incubated overnight at 4° C. with mouse monoclonal arginase I (8C9) antibody (Santa Cruz Biotechnology) or mouse monoclonal β-actin (AC-15) antibody (Abeam). Primary antibody binding was detected using HRP-conjugated anti-mouse antibody (Bio-Rad Laboratories, Inc.) and chemiluminescence (Amersham Pharmacia Biotech, Inc.). Protein loading was normalized according to the abundance of β-actin, with Ponceau S-stained membranes used for verification. Protein expression was quantified by densitometry using ImageQuant software (Molecular Dynamics).

TC-1 tumors [1] = assay: Immune cell infiltration of tumors (immunofluorescent staining for CD8, CD11b); format: in vivo, mouse
Protocol: The deposition of C3 cleavage products in tumor tissue was detected using a rat anti-mouse C3 mAb (clone 2/11), as described previously (Mastellos et al, 2004, Mol. Immunol. 40:1213-1221). […] Therefore, the positive reactivity in the tissue is thought to be associated with the activation of the complement cascade and C3 cleavage. C1q and MBL deposition were evaluated with the use of a rat anti-mouse C1q mAb (Abeam, Inc.) and a polyclonal goat anti-mouse MBL (Santa Cruz Biotechnology, Inc.), respectively. These sections were co-stained with the use of biotinylated anti-mouse CD31 to visualize tumor vasculature. CD8^+ T cell and myeloid-origin cell infiltrations of tumors were analyzed using anti-mouse CD8 and anti-mouse CD11b, respectively. Isotypic rat IgGs were used as a negative control. Anti-CD31, anti-CD8 and anti-CD11b and isotype controls were purchased from BD Biosciences. Primary antibodies bound in tissue were detected with donkey anti-rat or anti-goat Cy2-conjugated antibodies (The Jackson Laboratory), except for anti-CD31, which was visualized with a streptavidin-rhodamine complex (BD Biosciences). Immunofluorescent staining was performed on frozen, 5-μm-thick sections. For detection of complement deposition, green and red fluorescence images were merged with the use of Spot software (Diagnostic instruments, Inc.). CD8^+ tumor infiltrates were quantified using ImageJ image analysis software (NIH), positive cells were counted in whole tissue sections and means were calculated. The magnitude of CD11b^+ infiltrates was assessed in a semi-quantitative manner because of the relatively low numbers of infiltrating cells. Scores from 0 to 5 were assigned to sections, according to the relative intensity of the infiltrates. In addition, the distribution of infiltrating cells was analyzed. All analyses were performed in a blinded fashion.

TC-1 tumors [2] = assay: Tumor cell proliferation, apoptosis and angiogenesis in end-point tumor specimens; format: in vivo, mouse; settings: C5aR antagonist vs PBS
Protocol: The morphology of tumors and spleens was assessed by light microscopy (Olympus BX 60) of hematoxylin and eosin-stained 5-μm paraffin sections. To assess the number of cells in the S phase of the cell cycle, paraffin sections from tumors and spleens were stained with anti-BrdU. The presence of apoptotic cells in tumor sections was determined by staining for the activated caspase-3 site on cytokeratin 18. Both assays were performed as described previously (Markiewski et al., 2004, J. Immunol. 173:747-754). The microvascular density of engrafted tumors was evaluated by immunofluorescent staining for CD31 expression on endothelial cells in frozen sections. The bound biotinylated anti-CD31 (MEC 13.3-BD Biosciences) was visualized with a streptavidin-rhodamine complex (BD Biosciences). Fluorescence was evaluated by standard fluorescent microscopy (Olympus BX 60 microscope). BrdU incorporation into tumor cells and the microvascular density of tumors were quantified in 5-10 microscopic fields (400× for BrdU and 100× for microvascular density) with the use of ImageJ image analysis software (NIH, Bethesda, Md.), and mean values were calculated. Apoptosis was assessed in a semi-quantitative manner: Scores from 0 to 4 were assigned to sections, depending on the size of the area occupied by apoptotic cells. All analyses were performed in a blinded fashion.

C5aR = molecular target: T1, C5aR (Mus musculus, UniProt P30993); settings: cited from earlier work
T1 construct: endogenous in cells; host or cells: host cells of living C57BL/6J mice bearing TC-1 tumours (in vivo)
T1 sequence (P30993 1-351): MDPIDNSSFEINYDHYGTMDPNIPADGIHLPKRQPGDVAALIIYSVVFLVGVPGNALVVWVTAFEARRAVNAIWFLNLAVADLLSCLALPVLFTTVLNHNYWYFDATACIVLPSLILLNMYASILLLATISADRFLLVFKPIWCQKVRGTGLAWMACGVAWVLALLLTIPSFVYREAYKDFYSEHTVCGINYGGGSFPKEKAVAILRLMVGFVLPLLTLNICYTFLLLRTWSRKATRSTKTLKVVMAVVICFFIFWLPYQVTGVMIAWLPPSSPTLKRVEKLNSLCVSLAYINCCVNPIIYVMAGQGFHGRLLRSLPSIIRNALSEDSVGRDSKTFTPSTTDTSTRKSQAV

TC-1 tumors [3] = assay: TC-1 syngeneic tumor growth in mice (tumor volumes); format: in vivo, mouse
Protocol: To establish TC-1 tumors, male and female mice 6-16 weeks of age were anesthetized and injected subcutaneously (s.c.) with 1×10^5 TC-1 cells in the right or left rear flank. […] Beginning about 2 weeks after cell injection, mice were anesthetized, and their tumors were measured with calipers every 2-4 days until the tumor size required sacrificing of the animals. Measurements were taken in two dimensions (length and width) because the depth of the tumor was difficult to assess in live animals. The depth of the tumor was therefore estimated based on the smaller (width) measurement, and the volume of the tumor was calculated using the formula: (length×width×depth)±2. One hour prior to sacrifice, 5-bromo-2′-deoxyuridine (BrdU; Sigma) was injected intraperitoneally (i.p.) into mice at a single dose of 50 mg/kg for further assessment of tumor or immune cell proliferation. […] Excised tumors were measured in three dimensions to obtain an accurate volume and then weighed. Tumors and spleens were cut into sections for cell isolation, histologic examination, or freezing.
Control mice in the experiments utilizing C5aR antagonist or Taxol were injected s.c., or i.p., respectively, with ˜400 μl PBS alone, or in some cases, s.c. with the cyclic hexapeptide AcF[OPdChaA(d)R] […] The pattern of the administration of this control peptide to mice followed that described for the C5aR antagonist.
The effect of genotype or treatment on tumor growth (FIGS. 1-4) was analyzed with two-way analysis of variance (ANOVA) using GraphPad Prism (GraphPad Software, Inc.); the Bonferroni post-test correction was applied to control for the occurrence of false-positives. […] A p value equal to or less than 0.05 was considered significant.

[4] = system: MDSCs obtained from tumors and spleens; assay: CD11b expression in MDSCs after stimulation in vitro (flow cytometry); format: cell-based, mouse; settings: for CD11b upregulation in C5aR-deficient MDSCs: FIG. 6A-6D
Protocol: Single-cell suspensions were pre-incubated with anti-mouse CD16/CD32 mAb (Fc block, 2.4G2; BD Pharmingen) to block Fcγ receptors, then incubated with primary antibody. Fluorochrome-conjugated mAbs against mouse CD3 (17A2), CD4 (L3T4), CD8 (53-6.7), CD11b (M1/70), CD25 (PC61), CD45 (30-F11), CD69 (H1.2F3) and Gr-1 (RB6-8C5), (all from BD Biosciences) were used according to the manufacturer's instructions. In order to determine C5aR cell-surface expression, cells were sequentially incubated with rabbit polyclonal anti-mouse C5aR (C1150-32, BD Biosciences) or rabbit isotype (BD Pharmingen, 550875) and FITC-conjugated anti-rabbit IgG (F0112, R&D Systems), or with rat anti-mouse C5aR (mAb clone 20/70 Hycult biotechnology b.v., distributor-Cell science Inc.) or rat isotype (BD Pharmingen, 553928) followed by FITC-conjugated anti-rat IgG (Zymed-Invitrogen). For some experiments cells were permeabilized with the use of fixation and perm/wash buffers (BD Biosciences) prior to C5aR staining. Stained cells were subjected to six-color flow cytometry on a FACSCanto flow cytometer (BD Biosciences) using FlowJo software (Tree Star Inc.).
The migration of PMN-MDSCs to tumors requires crossing of the endothelial barrier by MDSCs. Leukocytes, in order to leave the circulation and migrate to interstitial tissues, require the interaction of their integrins with adhesion molecules on endothelial cells. It was hypothesized that the same mechanisms apply to MDSCs migrating to tumor tissue. Since CD11b is the αm subunit of integrin CR3, which interacts with ICAM-1 expressed on endothelial cells during leukocyte extravasation, the changes in CD11b expression were evaluated in MDSCs obtained from tumors and spleens after C5a stimulation in vitro.

[5] = system: MDSCs from spleens and tumors; assay: ROS and RNS production in MDSCs after stimulation in vitro (H2DCFDA); format: cell-based, mouse; settings: for ROS and RNS production in spleen MDSCs of C5aR-deficient mice: MDSCs from spleens of C5aR-deficient mice; for ROS and RNS production in tumor-associated MDSCs: either subpopulation, data not shown
Protocol: The oxidation sensitive dye 2′-7′-dichloro dihydrofluorescein diacetate (H2DCFDA) (Molecular Probes) was used for the measurement of ROS and RNS production in cells isolated from tumors or spleens. The excised tumors and spleens were mechanically disintegrated to obtain a single-cell suspension. Cells resuspended in DMEM were incubated with 2 μM of dye at 37° C. for 15 min. After washing with PBS, cells were stained for flow cytometry analysis as described above. MDSCs were distinguished from other cells present in the cell suspension as a viable CD45^+CD11b^+Gr-1^+ cell population, and the fluorescence intensity was estimated in the channel suitable for FITC according to the manufacturer's instruction. The amounts of ROS and RNS in cells were proportional to the intensity of fluorescence and were expressed as median fluorescence for gated populations. For some experiments, in addition to incubation with H2DCFDA, freshly isolated cells were simultaneously stimulated by 1, 10, or 100 nM of recombinant mouse C5a expressed as previously described (Strey et al., 2003, J. Exp. Med. 198:913-923) or 1 μM of phorbol myristate acetate (PMA; Sigma-Aldrich). Preliminary experiments have shown that stimulation of cells with 10 nM C5a induced the highest induction of ROS and RNS production.
To further verify the results obtained from these in vivo studies, MDSCs from spleens and tumors of wild-type mice were stimulated to produce ROS and RNS by incubating them with various concentrations of C5a in vitro. MDSCs isolated from C5aR-deficient mice were used as an additional control for these experiments. […] It was concluded that the unresponsiveness of tumor-associated MDSCs to in vitro C5a stimulation was a result of the strong stimulation of these cells for ROS and RNS production in vivo in the tumor microenvironment and the exhaustion of this system; therefore, further stimulation of these cells in vitro failed.

[6] = according to the manufacturer; cited from earlier work

Acetyl-Phe-[Orn-Pro-D-cyclohexylalanine-Trp-Arg] [C5aR antagonist]
arginase-1 expression in tumors (arginase-1): only slightly lower
location of CD11b+ cells in tumors (TC-1 tumors [1]; C5aR antagonist-treated mice, in control mice throughout the tumor sections): located only at the periphery of the tumors
number of cells expressing CD11b in tumor sections (TC-1 tumors [1]; C5aR antagonist-treated vs PBS-treated mice, FIG. 5F): lower
CD8+ cells infiltrating the tumor tissue (TC-1 tumors [1]; C5aR antagonist-treated vs control mice, FIG. 4A): heavily infiltrated by CD8^+ cells
tumor cell proliferation and apoptosis, and the extent of angiogenesis (TC-1 tumors [2]): only minimal differences
blockade of C5a-mediated effects in rodent disease models (C5aR; literature (Kohl et al., 2006; Holland et al.)): specifically block C5a-mediated effects
further inhibition of tumor growth in C5aR-deficient mice (TC-1 tumors [3]; C5aR-deficient mice, in comparison to mice treated with control peptide): did not induce any further inhibition of tumor growth
tumor growth versus control mice treated with PBS (TC-1 tumors [3]; wild-type mice, 1 mg/kg s.c. every 2-3 days beginning 1 week after tumor cell injection, FIG. 3A): impaired tumor growth
inhibition of tumor growth compared with Taxol treatment (TC-1 tumors [3]; wild-type mice, C5aR antagonist 1 mg/kg s.c. vs Taxol 20 mg/kg i.p. once per week, FIG. 3A): comparable to that achieved by treatment with this anti-cancer therapeutic

CCCCCCCCCCCCCC(=O)O[C@@H]1[C@@H](C)[C@@]2(O)[C@@H](C=C(CO)C[C@]3(O)C(=O)C(C)=C[C@@H]23)[C@@H]2C(C)(C)[C@]12OC(C)=O [PMA, phorbol myristate acetate]
CD11b upregulation in C5aR-deficient MDSCs [4]: response
ROS and RNS production in spleen MDSCs of C5aR-deficient mice ([5]; FIG. 7H, 7I): brisk response
ROS and RNS production in tumor-associated MDSCs [5]: lack of an increase

AcF[OPdChaA(d)R]
ability to block C5aR signaling (C5aR; literature (Finch et al., 1999; Johswich et al., 2006)): does not have the ability to block C5aR signaling

CC(=O)O[C@H]1C(=O)[C@@]2(C)[C@H]([C@H](OC(=O)c3ccccc3)[C@]3(O)C[C@H](OC(=O)[C@H](O)[C@@H](NC(=O)c4ccccc4)c4ccccc4)C(C)=C1C3(C)C)[C@]1(OC(C)=O)CO[C@@H]1C[C@@H]2O [Taxol, Paclitaxel]
LD50 [6]: 128 mg/kg
suppressive effect on tumor growth compared with genetic C5aR deficiency (TC-1 tumors [3]; wild-type mice treated with Taxol vs C5aR-KO mice treated with PBS, FIG. 3C): similar

B1: C5a: recombinant mouse C5a anaphylatoxin used to stimulate MDSCs in vitro (protein)
chain: NLHLLRQKIEEQAAKYKHSVPKKCCYDGARVNFYETCEERVARVTIGPLCIRAFNECCTIANKIRKESPHKPVQLGR
CD11b upregulation in C5aR-deficient MDSCs [4]: lack of CD11b upregulation
expression of CD11b in MO-MDSCs ([4]; MO-MDSCs, 10 nM C5a, FIG. 6C, 6D): did not respond
expression of CD11b in wild-type PMN-MDSCs ([4]; PMN-MDSCs from spleens and tumors, 10 nM C5a, FIG. 6A, 6B): significant increase
C5a concentration giving the highest induction of ROS and RNS production ([5]; 1, 10 or 100 nM tested, preliminary experiments): 10 nM
ROS and RNS production in spleen MDSCs of C5aR-deficient mice ([5]; FIG. 7H, 7I): did not respond
ROS and RNS production in spleen MDSCs of wild-type mice ([5]; both subpopulations, vs non-stimulated cells from the same mouse, FIG. 7H, 7I): increasing their ROS and RNS production
ROS and RNS production in tumor-associated MDSCs [5]: did not respond
